{"source": "patent US20170096492A1", "about": "“DOSAGE AND ADMINISTRATION OF ANTI-IGF-1R, ANTI-ErbB3 BISPECIFIC ANTIBODIES, USES THEREOF AND METHODS OF TREATMENT [sequence]” (Merrimack Pharmaceuticals, Inc., priority 2014, published 2017)", "key": {"[1]": {"tested_on": "CFPAC-1 pancreatic cancer cells", "assay": "pAKT (Ser473) ELISA after chemotherapy and ligand stimulation", "assay_type": "cell-based, human", "conditions": "then HRG 5 nM or IGF-1 50 nM 15 minutes", "protocol": "(§1) CFPAC-1 pancreatic cancer cells were seeded at 65% confluence in 10% serum-containing medium on 96-well plates overnight. […] Following incubation, cells were treated with (FIG. 24A) HRG (5 nM) or (FIG. 24B) IGF-1 (50 nM) for 15 minutes, where indicated. After treatment, cells were harvested and protein lysates generated. Changes in pAKT (Ser473) levels across all treatments were evaluated by pAKT ELISA, respectively. FIGS. 24(A-B) are bar graphs showing pAKT levels relative to ligand alone stimulated signals, which were normalized to 1.\nas §1, with “25A)” for “24A)”, “25B)” for “24B)”, “25(A-B)” for “24(A-B)”"}, "[2]": {"tested_on": "CFPAC-1 human pancreatic cancer cells", "assay": "HRG mRNA expression by real time PCR", "assay_type": "cell-based", "conditions": "24 hours", "protocol": "CFPAC-1 human pancreatic cancer cells were serum-starved by plating the cells in 2% serum-containing medium overnight, followed by treatment with vehicle, 500 nM gemcitabine, or 50 nM paclitaxel for 24 hours. Post-treatment, cell lysates were harvested, mRNA extracted, cDNA generated and changes in HRG mRNA expression evaluated by real time PCR. Bar graphs represent mean HRG mRNA expression relative to the geometric mean of three housekeeping genes (protein phosphatase 2 catalytic subunit alpha (PPP2CA), ribosomal protein L4 (RPL4), and glucuronidase beta (GUSB)), normalized to vehicle control."}, "[3]": {"tested_on": "HepG2 hepatocellular carcinoma cells", "assay": "HepG2 western blot, sorafenib with or without MM-141", "assay_type": "cell-based", "conditions": "sorafenib 5 μM, 2 hours", "protocol": "HepG2 cells were plated on 12 well dishes (3×10^5 cells per well) in 10% serum-containing media and incubated overnight. […] Following treatment, cells were harvested in lysis buffer containing protease and phosphatase inhibitors and analyzed by western blotting."}, "CAKI-1 xenografts": {"tested_on": "CAKI-1 xenografts", "assay": "CAKI-1 xenograft PD, western blot", "assay_type": "in vivo, mice", "conditions": "single agent; MM-141 30 mpk i.p. or everolimus 10 mpk orally, 2 doses; tumors harvested 24 hours after second dose", "protocol": "For the PD study results shown in FIGS. 3A-B and FIGS. 5A-C, NOD/SCID female mice were inoculated with 12×10^6 CAKI-1 or 10×10^6 SK-ES-1 cells, respectively, in 1:1 Matrigel® suspension. […] Tumors were harvested 24 hours after the second dose of drug; lysates were generated and subjected to western blot analysis."}, "[4]": {"tested_on": "DU145 prostate cancer-derived xenograft tumors", "assay": "DU145 xenograft PD, western blot", "assay_type": "in vivo, mice", "conditions": "docetaxel 20 mpk i.p. single dose, tumors harvested Day 4", "source_text": "(§2) For the PD studies described in FIGS. 6A-B and FIGS. 9 A-B, nu/nu female mice were inoculated with 8×10^6 DU145 or 5×10^6 BxPC-3 cells, respectively, in 1:1 Matrigel® suspension. […] Tumor lysates were generated and subjected to western blot analysis."}, "[5]": {"tested_on": "BxPC-3 derived xenograft tumors", "assay": "BxPC-3 xenograft PD, western blot", "assay_type": "in vivo, mice", "conditions": "gemcitabine 150 mpk i.p. Day 0, 6; tumors harvested Day 7", "source_text": "as §2"}, "mTOR": {"target": "mTOR (Homo sapiens, UniProt P42345)", "conditions": "cited from earlier work"}}, "note": "Entries after “also recorded” stand apart in the source; their conditions may differ.", "data": [{"smiles": "CC(=O)O[C@H]1C(=O)[C@@]2(C)[C@H]([C@H](OC(=O)c3ccccc3)[C@]3(O)C[C@H](OC(=O)[C@H](O)[C@@H](NC(=O)c4ccccc4)c4ccccc4)C(C)=C1C3(C)C)[C@]1(OC(C)=O)CO[C@@H]1C[C@@H]2O", "note": "[paclitaxel, Paclitaxel, reference compound]", "values": [{"measurement": "sensitivity to ligands, pAKT (Ser473)", "setting": "[1]; paclitaxel 100 nM 24 hours", "result": "increased sensitivity to IGF-1"}, {"measurement": "HRG mRNA relative to vehicle control", "setting": "[2]; 50 nM paclitaxel", "result": "at least doubles"}]}, {"smiles": "CNC(=O)c1cc(Oc2ccc(NC(=O)Nc3ccc(Cl)c(C(F)(F)F)c3)cc2)ccn1", "note": "[sorafenib, Sorafenib]", "values": [{"measurement": "ErbB3 level", "setting": "[3]", "result": "up-regulated; also recorded: upregulation of ErbB3 activity"}, {"measurement": "pAKT level", "setting": "[3]", "result": "up-regulated"}]}, {"smiles": "CO[C@H]1C[C@@H]2CC[C@@H](C)[C@@](O)(O2)C(=O)C(=O)N2CCCC[C@H]2C(=O)O[C@H]([C@H](C)C[C@@H]2CC[C@@H](OCCO)[C@H](OC)C2)CC(=O)[C@H](C)/C=C(\\C)[C@@H](O)[C@@H](OC)C(=O)[C@H](C)C[C@H](C)/C=C/C=C/C=C/1C", "note": "[everolimus, Everolimus, reference compound]", "values": [{"measurement": "total ErbB2", "setting": "CAKI-1 xenografts", "result": "upregulation"}, {"measurement": "total IGF-1R", "setting": "CAKI-1 xenografts", "result": "upregulation"}]}, {"smiles": "CC(=O)O[C@@]12CO[C@@H]1C[C@H](O)[C@@]1(C)C(=O)[C@H](O)C3=C(C)[C@@H](OC(=O)[C@H](O)[C@@H](NC(=O)OC(C)(C)C)c4ccccc4)C[C@@](O)([C@@H](OC(=O)c4ccccc4)[C@H]21)C3(C)C", "note": "[docetaxel, Docetaxel]", "values": [{"measurement": "ErbB3 protein expression level", "setting": "[4]", "result": "up-regulated"}, {"measurement": "IGF-1R protein expression level", "setting": "[4]", "result": "up-regulated"}]}, {"smiles": "Nc1ccn([C@@H]2O[C@H](CO)[C@@H](O)C2(F)F)c(=O)n1", "note": "[gemcitabine, Gemcitabine]", "values": [{"measurement": "total ErbB3", "setting": "[5]", "result": "up-regulation and activation"}, {"measurement": "total IGF-1R", "setting": "[5]", "result": "up-regulation and activation"}, {"measurement": "sensitivity to ligands, pAKT (Ser473)", "setting": "[1]; gemcitabine 1 μM 24 hours", "result": "increased sensitivity to HRG and IGF-1"}, {"measurement": "HRG mRNA increase relative to vehicle control", "setting": "[2]; 500 nM gemcitabine", "result": "about 22 fold"}]}, {"smiles": "COc1ccc(-c2ccc3c(N4CCOC[C@@H]4C)nc(N4CCOC[C@@H]4C)nc3n2)cc1CO", "note": "[AZD8055]", "values": [{"measurement": "selectivity against PI3K isoforms and ATM/DNA-PK", "setting": "mTOR", "result": "~1,000 fold"}]}]}
